Experimental findings from US20150297593A1 (priority 2012, published 2015) are described below.

Series [1] deals with influenza A virus (Mem71, H3N1). Also on record: species or system BALB/c mice. The following applies: mouse, in vivo.
For series [2] the test system is unchanged. In kind it is in vivo, Rag2−/− mice.
Series [3] concerns nuocytes (CD45+Lin−ST2+cKit+Sca1+). In kind it is in vivo, BALB/c mice.
Series [4] concerns mouse lung nuocytes (Lin−ST2+). It is filed as cell-based. Particulars: IL-2 50 ng/ml plus rIL-33 100 ng/ml, imatinib 0.1-1 μM.
Series [5] has as its system human nuocytes isolated from the BAL fluid of patients with asthma. In kind it is cell-based. The following applies: imatinib 1 μM; rIL-2 50 ng/ml plus rIL-33 100 ng/ml for 24 hrs.
The test system of the next series is RSV. As to the kind of experiment: RSV-induced AHR model. It is filed as in vivo, BALB/c mice. Particulars: 100 mg/kg i.p. on day 1 post infection.
Series [6] relates to recombinant IL-33 (rIL-33)-induced AHR. The following applies: mouse, in vivo.
The subject of series [7] is influenza A virus (Mem71, H3N1). The following applies: 100 mg/kg i.p. on day 1; sera on day 11.
Series [8] deals with nuocytes (CD45+Lin−ST2+ckit+Sca1+). As to the kind of experiment: FACS count of BAL and lung nuocytes after rIL-33 in Rag2−/− mice. The following applies: imatinib 100 mg/kg i.p. on day 1, day 5.
Method: In FIGS. 5C and 5D, BAL cells (FIG. 5C) or lung cells (FIG. 5D) were taken from 8 wk old Rag2^−/− mice (n=5 per group) on day 5, and further stimulated with PMA+ionomycin for 5 hr. The percentage of lung CD45^+Lin^−ST2^+ckit^+Sca1^+ cells was assessed by FACS. Third panels show dot plots for Lin^−ST2^+ cells in lung leukocytes (CD45^+). After gating on the Lin^−ST2^+cKit^+ cells, the cells were analyzed for c-Kit and Sca1 expression (fourth panels).
Whole lungs were flushed with PBS injected into the right ventricle, removed, and rinsed in PBS. […] The digest was passed multiple times through an 18-gauge needle and allowed to incubate for another 30 min before filtered. RBCs were removed by 4-min incubation in lysis buffer (Sigma-Aldrich, St. Louis, Mo.) at room temperature. Single-cell suspensions of spleen lymphocytes were obtained by mechanical disruption and RBC lysis.
Cells were preincubated with anti-Fcy blocking mAb (2.4G2) and washed before staining. Cells were stained with anti-mouse PE-Texas red-conjugated CD45, FITC-conjugated CD3, CD19, CD11b, CD11c, CD49b, F4/80, Fc□R1; APC conjugated cKit,; PerCP conjugated cKit, Alexa Fluor 700-conjugated Sca1; PE conjugated biotinylated anti-ST2 antibodies. […] Cells were analyzed on a BDCanto flow cytometer (BD Biosciences, Franklin Lakes, N.J.) using FlowJo 8.3.3 software (Tree Star, Inc., Ashland, Oreg.).
The mark [9] stands for this setting: 100 mg/kg on day 1, day 5 post-infection.
[10] abbreviates: after imatinib treatment, data not shown.

Consider `Cc1ccc(NC(=O)c2ccc(CN3CCN(C)CC3)cc2)cc1Nc1nccc(-c2cccnc2)n1` [imatinib], for which, in series [1], the “inflammation (BAL fluid cells)” value was “abolished” and the “lung inflammation (BAL fluid cells)” value is “abolished”. Besides, in series [2] (100 mg/kg i.p. on day 1, […]), the “H3N1 infection-induced inflammation in Rag2−/− mice” value is reported as “inhibits”. The “influenza-induced AHR in Rag2−/− mice” value in [2] (mouse, in vivo) is “blocked”. For the same compound, in series [3] (100 mg/kg on day 1, day 5), the “total number of NKT cells in the lung” value is listed as “had no effect” and the “total number of conventional T cells in the lung” value is recorded as “had no effect”. For the same compound, in [3] (setting [9]), the “frequency and absolute number of nuocytes in BAL fluid” value is recorded as “reduced”; the “frequency and absolute number of nuocytes in the lungs” value is “reduced”. Besides, in series [3] (setting [10]), the “frequency of NKT cells in BAL fluid” value was “slightly reduced” and the “total number of BAL fluid cells” value is on record as “slightly reduced”. Besides, in [4], the “secretion of IL-5 by nuocytes (ELISA)” value is on record as “reduced” and the “secretion of IL-13 by nuocytes (ELISA)” value is “reduced”. Moreover, the “proliferation of mouse lung nuocytes (3H-thymidine incorporation)” value in series [4] (dose-dependent) is “blocked”. Besides, the “production of IL-13 by human nuocytes” value in series [5] is on record as “blocked”. The “development of RSV-induced inflammation” value in the series with RSV is given as “blocked”. Besides, the “development of RSV-induced AHR” value with RSV (assessed 6 days post-infection) is recorded as “blocked”. In series [6], the “AHR induced with recombinant IL-33” value is on record as “could block”. In addition, in [7], the “anti-influenza IgG production” value is listed as “no significant reduction”. For the same compound, in [8], the “number of BAL and lung nuocytes (airway nuocytophilia induced with rIL-33)” value was “reduced”.

Regarding `Cc1ccc(NC(=O)c2ccc(CN3CCN(C)CC3)cc2)cc1Nc1nc(-c2cccnc2)cs1` [masitinib], in series [1], the “H3N1-induced AHR” value is reported as “abolished” and the H3N1-induced inflammation result is “abolished”.
